Experimental findings from BindingDB's records for doi:10.1124/jpet.103.062794 (Neurosearch, 2004) are described below.

The target in assay [1] is Glutamate receptor ionotropic, kainate 2 (Homo sapiens, UniProt Q13002).
Assay [2] addresses Glutamate receptor ionotropic, kainate 1 (Homo sapiens, UniProt P39086).

Where “and” joins values, the source holds several entries; their conditions need not be identical. Equal values may be shown once.

Glutamate receptor ionotropic, kainate 1, sequence (P39086 whole entry): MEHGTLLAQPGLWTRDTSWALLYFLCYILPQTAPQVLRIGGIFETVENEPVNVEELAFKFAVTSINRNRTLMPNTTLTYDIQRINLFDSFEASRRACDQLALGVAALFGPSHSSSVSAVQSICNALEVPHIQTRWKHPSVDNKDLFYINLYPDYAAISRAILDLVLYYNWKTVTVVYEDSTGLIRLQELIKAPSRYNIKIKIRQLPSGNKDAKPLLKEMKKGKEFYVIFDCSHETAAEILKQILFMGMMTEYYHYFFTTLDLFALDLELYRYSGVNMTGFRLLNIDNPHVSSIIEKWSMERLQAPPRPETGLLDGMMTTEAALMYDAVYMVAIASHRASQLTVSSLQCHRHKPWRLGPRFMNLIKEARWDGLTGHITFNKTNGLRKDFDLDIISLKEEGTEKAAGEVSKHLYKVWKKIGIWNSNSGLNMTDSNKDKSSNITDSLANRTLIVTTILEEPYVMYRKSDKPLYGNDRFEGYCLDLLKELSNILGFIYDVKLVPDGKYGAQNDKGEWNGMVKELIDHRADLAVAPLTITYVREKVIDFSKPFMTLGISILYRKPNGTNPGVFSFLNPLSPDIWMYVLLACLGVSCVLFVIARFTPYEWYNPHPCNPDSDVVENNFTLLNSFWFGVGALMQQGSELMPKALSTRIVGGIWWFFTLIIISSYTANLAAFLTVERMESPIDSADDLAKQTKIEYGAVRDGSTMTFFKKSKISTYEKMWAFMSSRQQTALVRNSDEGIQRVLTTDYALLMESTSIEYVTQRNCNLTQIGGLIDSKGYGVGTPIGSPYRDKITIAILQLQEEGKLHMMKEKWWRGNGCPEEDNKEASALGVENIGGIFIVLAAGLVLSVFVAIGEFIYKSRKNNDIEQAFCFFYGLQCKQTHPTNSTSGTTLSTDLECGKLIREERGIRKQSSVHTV
Glutamate receptor ionotropic, kainate 2, sequence (Q13002 whole entry): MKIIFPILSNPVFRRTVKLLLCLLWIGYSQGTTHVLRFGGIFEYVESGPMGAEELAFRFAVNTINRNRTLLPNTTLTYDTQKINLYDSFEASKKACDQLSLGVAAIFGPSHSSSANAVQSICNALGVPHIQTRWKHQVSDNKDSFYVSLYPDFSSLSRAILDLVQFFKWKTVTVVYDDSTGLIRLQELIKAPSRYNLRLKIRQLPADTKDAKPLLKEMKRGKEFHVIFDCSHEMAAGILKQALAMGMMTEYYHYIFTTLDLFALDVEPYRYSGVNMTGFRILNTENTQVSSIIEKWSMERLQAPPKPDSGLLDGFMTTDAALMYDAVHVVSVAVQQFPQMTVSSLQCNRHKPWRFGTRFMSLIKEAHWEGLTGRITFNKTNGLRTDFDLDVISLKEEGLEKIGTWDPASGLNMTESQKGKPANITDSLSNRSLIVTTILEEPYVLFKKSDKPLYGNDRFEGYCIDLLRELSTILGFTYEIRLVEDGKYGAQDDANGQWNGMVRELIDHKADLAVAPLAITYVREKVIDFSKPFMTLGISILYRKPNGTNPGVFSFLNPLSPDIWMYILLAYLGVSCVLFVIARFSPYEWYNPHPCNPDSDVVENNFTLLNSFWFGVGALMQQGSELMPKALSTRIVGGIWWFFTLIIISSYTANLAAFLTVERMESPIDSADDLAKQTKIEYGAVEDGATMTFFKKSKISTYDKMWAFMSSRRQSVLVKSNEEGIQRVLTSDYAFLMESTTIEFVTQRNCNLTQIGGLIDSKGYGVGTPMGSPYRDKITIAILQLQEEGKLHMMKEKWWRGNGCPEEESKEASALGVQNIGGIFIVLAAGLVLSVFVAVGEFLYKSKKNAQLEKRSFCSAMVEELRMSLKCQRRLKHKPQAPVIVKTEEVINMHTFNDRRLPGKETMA

In general, Ki refers to a measure of affinity in units of concentration, obtained from inhibition or displacement. Low values mean tighter binding, high ones weaker binding. As for `O=C(Nc1cc(NC(=O)c2ccccc2)c(C(=O)O)cc1C(=O)O)c1ccccc1` [NS3763], the inhibition constant Ki in assay [1] was more than 30 µM; in assay [2], > 10 µM and 1.6 µM.
Molecule `CN1CCc2c(-c3ccc(S(=O)(=O)N(C)C)cc3)cc3c(c2C1)NC(=O)/C3=N\OC(CCO)C(=O)O` (stereo not drawn) [SPD 502] showed an inhibition constant Ki in assay [1] of more than 10 µM.
